Test results reported in US20060188937A1, “G-protein estrogen membrane receptor” (Board Of Regents, The University Of Texas System, priority 2004, published 2006).
Entries after “also recorded” stand apart in the source; their conditions may differ.

Columns and labels:
GPR30 [1] = target: T1, GPR30 (Homo sapiens, UniProt Q99527); assay: Competitive binding against [3H]E2, plasma membranes of HEK293 cells transfected with GPR30
GPR30 [2] = target: T1, GPR30; assay: cAMP measurement (adenylyl cyclase activity), HEK293 cells transfected with GPR30; type: biochemical; details: for activation of stimulatory G-protein and upregulation of adenylyl cyclase activity / cAMP production: transfected cells; for activation of stimulatory G-protein and upregulation of adenylyl cyclase activity: discussion summary; for cAMP production: FIG. 3F, 100 nm, 20 min
[3] = tested on: untransfected HEK293 cells; assay: cAMP measurement, untransfected HEK293 cells; type: biochemical, human; details: 15 min treatment with 200 nm
GPR30 [4] = target: T1, GPR30; details: for binding affinities to the receptor: summary statement; for affinity for the receptor in competitive binding: concentrations up to 1 μM
wild-type GPR30 = target: T2, wild-type GPR30 (Homo sapiens, UniProt Q99527); assay: [35S]GTPγS binding to membranes of SKBR3 cells; type: biochemical; details: for agonist action on GPR30 / mER-mediated pathway: summary statements; for specific [35S]GTPγS binding (activation of G-proteins): 100 nm, SKBR3 cell membranes
T2 construct: membranes of SKBR3 cells expressing wild-type GPR30; endogenous in cells; host or cells: SKBR3 (human breast cancer cells, ATCC)
Protocol: [^35S]GTPγ-S binding to cell membranes. Binding of [^35S]GTPγ-S to plasma membranes (˜10 μg protein) was assayed following the procedure of Liu and Dillon (30) with few modifications. […] Nonspecific binding was determined by addition of 100 μM GTPγ-S. At the end of the incubation period 100 μl aliquots were filtered through Whatman GF/B glass fiber filters, followed by several washes and subsequent scintillation counting.

SKBR3 cells [5] = details: cited from earlier work
[6] = tested on: untransfected HEK293 cells; assay: [35S]GTPγS binding to membranes of untransfected HEK293 cells; type: biochemical, human; details: 100 nm
Protocol: [^35S]GTPγ-S binding to cell membranes. Binding of [^35S]GTPγ-S to plasma membranes (˜10 μg protein) was assayed following the procedure of Liu and Dillon (30) with few modifications. Plasma membranes were incubated with 10 μM GDP and 0.5 nm [^35S]GTPγ-S (˜12,000 cpm, 1.0 Ci/mol) in […] Tris buffer ([…], 5 mM MgCl2, 1 mM CaCl2, 0.6 mM EDTA, 0.1% BSA, 50 mM Tris-HCl, pH 7.4) at 25° C. for 30 min in the presence of 100 nm of the test compounds. Nonspecific binding was determined by addition of 100 μM GTPγ-S. At the end of the incubation period 100 μl aliquots were filtered through Whatman GF/B glass fiber filters, followed by several washes and subsequent scintillation counting.

SKBR3 cells [7] = assay: Hormone pretreatment of SKBR3 cells, E2 receptor binding to plasma membranes; type: cell-based, human; details: 200 nm for 16 hrs in FBS-free media

T2 sequence (Q99527 whole entry): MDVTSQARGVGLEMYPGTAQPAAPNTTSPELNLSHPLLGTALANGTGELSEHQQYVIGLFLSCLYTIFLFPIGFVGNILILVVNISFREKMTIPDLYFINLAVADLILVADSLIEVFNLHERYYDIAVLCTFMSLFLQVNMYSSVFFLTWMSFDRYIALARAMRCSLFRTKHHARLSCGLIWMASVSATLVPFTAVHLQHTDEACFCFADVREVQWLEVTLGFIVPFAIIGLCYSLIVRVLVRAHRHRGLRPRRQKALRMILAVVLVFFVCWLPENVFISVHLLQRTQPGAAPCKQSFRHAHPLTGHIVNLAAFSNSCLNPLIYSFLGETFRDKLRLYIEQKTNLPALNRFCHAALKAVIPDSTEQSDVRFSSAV
T1 sequence (Q99527 whole entry): as above

Compound: C[C@H]1CCCC(=O)CCC/C=C/c2cc(O)cc(O)c2C(=O)O1 [zearalonone, zearalenone]
- binding affinity in competitive binding (GPR30 [1]): significant binding affinity

Compound: cholera toxin
- effect on estrogen-induced increase in cAMP concentrations (GPR30 [2]): blocked

Compound: C[C@]12CC[C@@H]3c4ccc(O)cc4CC[C@H]3[C@@H]1CCC2=O [estrone]
- activation of stimulatory G-protein and upregulation of adenylyl cyclase activity (GPR30 [2]): inactive

Compound: C[C@]12CC[C@@H]3c4ccc(O)cc4C[C@@H](CCCCCCCCC[S+]([O-])CCCC(F)(F)C(F)(F)F)[C@H]3[C@@H]1CC[C@@H]2O (stereo partly shown) [ICI 182, 780]
- adenylyl cyclase activity, increase in cAMP content [3]: not in untransfected cells
- adenylyl cyclase activity, increase in cAMP content (GPR30 [2]; transfected HEK293 cells, 15 min treatment with 200 nm): significantly increased
- cAMP production (GPR30 [2]): significantly increased cAMP
- relative binding affinity (RBA), % that of E2 (GPR30 [4]; SKBR3 membranes): approximately 10%
- decrease in RBA to GPR30 versus estradiol-17β (GPR30 [4]; discussion summary): only minor decreases
- binding affinities to the receptor (GPR30 [4]): high binding affinities
- binding affinity in competitive binding (GPR30 [1]): significant binding affinity
- agonist action on GPR30 / mER-mediated pathway (wild-type GPR30): estrogen agonists
- agonist action on GPR30 / mER-mediated pathway (wild-type GPR30; listed as ICI 182,780): mimic the actions of E2

Compound: ClC(Cl)=C(c1ccc(Cl)cc1)c1ccccc1Cl [o,p′-DDE]
- cAMP production (GPR30 [2]): significantly increased cAMP
- displacement of [3H]-E2 binding (GPR30 [4]; SKBR3 membranes, concentrations 0.1-1 μM): significant displacement
- binding affinities to the receptor (GPR30 [4]): high binding affinities
- binding affinity in competitive binding (GPR30 [1]): significant binding affinity
- specific [35S]GTPγS binding (activation of G-proteins) (wild-type GPR30): significantly increased
- agonist action on GPR30 / mER-mediated pathway (wild-type GPR30): agonist; also recorded: mimic the actions of E2

Compound: C[C@]12CC[C@H]3[C@@H](CCC4=CC(=O)CC[C@@]43C)[C@@H]1CC[C@@H]2O [testosterone]
- affinity for the receptor in competitive binding (GPR30 [4]; SKBR3 membranes): no affinity

Compound: C[C@]12CCC(=O)C=C1CC[C@@H]1[C@@H]2[C@@H](O)C[C@@]2(C)[C@H]1CC[C@]2(O)C(=O)CO [cortisol]
- affinity for the receptor in competitive binding (GPR30 [4]; SKBR3 membranes): no affinity

Compound: CC/C(=C(\c1ccccc1)c1ccc(OCCN(C)C)cc1)c1ccccc1 [tamoxifen]
- cAMP production (GPR30 [2]): significantly increased cAMP
- binding affinity in competitive binding (GPR30 [1]): significant binding affinity
- specific [35S]GTPγS binding (activation of G-proteins) (wild-type GPR30): significantly increased
- agonist action on GPR30 / mER-mediated pathway (wild-type GPR30): estrogen agonists; also recorded: mimic the actions of E2

Compound: C[C@]12CC[C@@H]3c4ccc(O)cc4CC[C@H]3[C@@H]1CC[C@@H]2O [E2, 17β-estradiol]
- effective concentration (cAMP) previously shown (SKBR3 cells [5]): 1 nm
- adenylyl cyclase activity, increase in cAMP content [3]: not in untransfected cells
- specific [35S]GTPγS binding [6]: not to membranes of untransfected cells
- increase in receptor binding (SKBR3 cells [7]): 2.5 fold

Compound: C[C@]12CC[C@@H]3c4ccc(O)cc4CC[C@H]3[C@@H]1C[C@@H](O)[C@@H]2O [estriol]
- cAMP production (GPR30 [2]): did not alter cAMP production
- activation of stimulatory G-protein and upregulation of adenylyl cyclase activity (GPR30 [2]): inactive
- specific [35S]GTPγS binding (activation of G-proteins) (wild-type GPR30): failed to activate the G-proteins

Compound: CC(=O)[C@H]1CC[C@H]2[C@@H]3CCC4=CC(=O)CC[C@]4(C)[C@H]3CC[C@]12C [P4, progesterone]
- affinity for the receptor in competitive binding (GPR30 [4]; SKBR3 membranes): no affinity
- increase in receptor binding (SKBR3 cells [7]): 9 fold

Compound: CC/C(=C(/CC)c1ccc(O)cc1)c1ccc(O)cc1 [diethystilbestrol, diethylstilbestrol]
- displacement of [3H]E2 (GPR30 [1]; concentrations up to 10 μM): failed to significantly displace
